Data taken from PMC10889512, “Pyrimidine Schiff Bases: Synthesis, Structural Characterization and Recent Studies on Biological Activities” (International Journal of Molecular Sciences, 2024).

How the values were obtained:
A172 cell line = experiment: Comet assay (single-cell gel electrophoresis), A172; type: cell-based, human
Experimental: Single-cell gel electrophoresis was performed to assess the potential genotoxic effect on AGS and A172 after incubation with compound 4b at IC50. This method is based on the ability of damaged DNA to migrate out of the cell during electrophoresis. After DNA staining (Hoechst 33342), the characteristic “comet tail” could be observed under the fluorescence microscope. The damages in 100 randomly selected cells were visually classified into five groups according to the length of the “comet tail”. Group 0 consisted of cells without damaged DNA, while group 4 contained cells with maximally long tails. Based on this, a group damage index (DI) was calculated. The genotoxic effect was found in both examined cell lines. In the case of the A172 cell line, the DNA degradation level seemed to be independent of the incubation time with compound 4b (DNA damage index (DDI) between 77 and 85 over three incubation periods), whereas for AGS cells, genotoxicity was induced in a time-dependent manner (DDI 63, 107, and 111 after 24, 48, and 72 h, respectively).
The comet assay was performed according to the method of Singh et al. with slight modifications. Slides sterilized in 70% ethanol microscope were covered with thin layer of 1% normal melting agarose and left to solidify in a low-humidity environment. Cells were plated in 12-well plates at a density of 1 × 10^5 cells/well and incubated for 24 h in a cell incubator. Next, compound 4b was added in concentrations equal to the IC50 values obtained after the neutral red uptake assay. After 24, 48, and 72 h incubation, cells were harvested, centrifuged, and resuspended in PBS. […] A total of 100 randomly selected cells were scored, and captured comets were classified based on the comet’s tail length as follows: class 0 contained comets with no damaged DNA; class 1, those with low damage; class 2, those with medium damage; class 3, those with high damage; and class 4, those with very high damage. The damage index (DI) was calculated as follows: DI=0×n0+1×n1+2×n2+3×n3+4×n4, n0,1,2,3,4 —the amount of comets in each class.

AGS = experiment: Neutral red uptake assay on AGS; type: cell-based, human; settings: 72 h treatment
Experimental: Based on the results obtained for the RPTEC cell line, the following concentrations of 4b–d were chosen to be applied to neoplastic cell lines: 0.1, 1, 10, 25, 50, and 100 µM. A172, AGS, CaCo-2, HeLa, and HepG2 cancer cell lines were used to perform a neutral red uptake assay. The obtained results were compared with a negative control (cell lines incubated without tested compounds), and half-maximal inhibitory concentration (IC50) values were calculated. Cell lines were plated in 96-well plates at a density of 1 × 10^4 cells/well. After 24 h incubation, which allowed the cells to attach and start to proliferate, the culture media were replaced with 4a–d dissolved in the appropriate medium at concentrations of 1, 10, 50, 100, 150 and 200 µM. […] Negative (1% DMSO in medium) and positive (1 µM staurosporine) controls were also included. Plates were incubated at 37 °C for 24, 48, and 72 h before the neutral red uptake assay. The neutral red uptake assay was performed as described by Repetto et al.. Briefly, the medium from all wells was discarded, the attached cells were washed with 100 µL PBS, and then 100 µL of neutral red working solution in medium (40 µg/mL) was added to each well. The neutral red solution was incubated overnight in the same conditions as the cells and centrifuged before being added to the cells. The plates were incubated for at least 2 h at 37 °C, 5% CO2, in a humidified atmosphere. Next, the neutral red medium was removed, and the cells were washed with 100 µL PBS. A 100 µL quantity of destain solution consisting of 50% ethanol, 1% glacial acetic acid, and deionized water was added to each well. Plates were incubated for 30 min with constant shaking on a horizontal shaker at 37 °C. Absorption was measured at 540 nm excitation. The cells’ viability was calculated by comparing results from experimental sets with negative controls according to the formula: % viability=ODtest substance−ODblind/ODnegative control−ODblind×100

Cc1nc(-c2ccccc2)nc(Nc2ccc(F)cc2)c1C=Nc1cccc(Cl)c1 [compound 4b, 5-{[(3-chlorophenyl)imino]methyl}-N-(4-fluorophenyl)-6-methyl-2-phenylpyrimidin-4-amine]
DNA damage index (A172 cell line; A172, at IC50, 24 h): 77 arbitrary units | DNA damage index (A172 cell line; A172, at IC50, 48 h): 85 arbitrary units | DNA damage index (A172 cell line; A172, at IC50, 72 h): 78 arbitrary units | IC50 (AGS): 32.2 µM | IC50 (AGS; Homo sapiens, 72 h): 32.2 µM
